Values after ≈ are worked out from the molar mass of the structure shown. Where two headings read alike, the source gives them in different places.
How the values were obtained:
Experiment in all cases: Antimicrobial susceptibility testing (MIC), BD Phoenix Automated Microbiology System; for interpretation of the result: key: R, resistant; I, intermediate; S, susceptible; R*: *As a rule, when ESBL is detected, an interpretation of susceptible or intermediate for penicillins, cephalosporins and aztreonam is reported as resistant
Type in all cases: cell-based
Pseudomonas aeruginosa = settings: for MIC: Pseudomonas aeruginosa
Description: (§1) The inventors performed antimicrobial susceptibility testing (AST) by determining the minimal inhibiting concentration (MIC) of a panel of antimicrobials on all twenty bacterial isolates using the BD Phoenix Automated Microbiology System (Table 3). Antimicrobial panels included several drugs from each of the four most commonly used classes of antimicrobials, aminoglycosides, β-lactams, carbapenems and fluoroquinolones. The panels also included antimicrobials from other classes, such as trimethoprim/sulfamethoxazole, but resistance to these was not considered in the classification of isolates as multidrug-resistant.

Escherichia coli = settings: for MIC: Escherichia coli
Description: as §1

Klebsiella ssp. = settings: for MIC: Klebsiella
Description: as §1

Acinetobacter baumannii = settings: for MIC: Acinetobacter baumannii
Description: as §1

[1] = Pseudomonas aeruginosa isolate 1
[2] = Pseudomonas aeruginosa isolate 2
[3] = Pseudomonas aeruginosa isolate 3
[4] = Pseudomonas aeruginosa isolate 4
[5] = Pseudomonas aeruginosa isolate 5
[6] = read-out: minimal inhibiting concentration, Pseudomonas aeruginosa isolate 1
[7] = read-out: minimal inhibiting concentration, Pseudomonas aeruginosa isolate 2
[8] = read-out: minimal inhibiting concentration, Pseudomonas aeruginosa isolate 3
[9] = read-out: minimal inhibiting concentration, Pseudomonas aeruginosa isolate 4
[10] = read-out: minimal inhibiting concentration, Pseudomonas aeruginosa isolate 5
[11] = read-out: minimal inhibiting concentration, Escherichia coli isolate 1
[12] = read-out: minimal inhibiting concentration, Escherichia coli isolate 2
[13] = read-out: minimal inhibiting concentration, Escherichia coli isolate 3
[14] = read-out: minimal inhibiting concentration, Escherichia coli isolate 4
[15] = read-out: minimal inhibiting concentration, Escherichia coli isolate 5
[16] = read-out: minimal inhibiting concentration, Klebsiella ssp. isolate 2
[17] = read-out: minimal inhibiting concentration, Klebsiella ssp. isolate 3
[18] = read-out: minimal inhibiting concentration, Klebsiella ssp. isolate 4

Row | SMILES | interpretation of the result (Pseudomonas aeruginosa; [1]) | interpretation of the result (Pseudomonas aeruginosa; [2]) | interpretation of the result (Pseudomonas aeruginosa; [3]) | interpretation of the result (Pseudomonas aeruginosa; [4]) | interpretation of the result (Pseudomonas aeruginosa; [5]) | MIC (Pseudomonas aeruginosa; [6]) [µg/mL] | MIC (Pseudomonas aeruginosa; [7]) [µg/mL] | MIC (Pseudomonas aeruginosa; [8]) [µg/mL] | MIC (Pseudomonas aeruginosa; [9]) [µg/mL] | MIC (Pseudomonas aeruginosa; [10]) [µg/mL] | interpretation of the result (Escherichia coli; Escherichia coli isolate 1) | interpretation of the result (Escherichia coli; Escherichia coli isolate 2) | interpretation of the result (Escherichia coli; Escherichia coli isolate 3) | interpretation of the result (Escherichia coli; Escherichia coli isolate 4) | interpretation of the result (Escherichia coli; Escherichia coli isolate 5) | MIC (Escherichia coli; [11]) [µg/mL] | MIC (Escherichia coli; [12]) [µg/mL] | MIC (Escherichia coli; [13]) [µg/mL] | MIC (Escherichia coli; [14]) [µg/mL] | MIC (Escherichia coli; [15]) [µg/mL] | further results
1 | CO[C@@]1(NC(=O)Cc2cccs2)C(=O)N2C(C(=O)O)=C(COC(N)=O)CS[C@@H]21 [Cx., Cefoxitin] | R | R | R | R | R | > 16 | > 16 | > 16 | > 16 | > 16 | S | S | S | R | S | 8 (≈ 18.7 µM) | ≤ 4 | 8 (≈ 18.7 µM) | > 16 | 8 (≈ 18.7 µM) | interpretation of the result (Klebsiella ssp.; Klebsiella ssp. isolate 2): S; interpretation of the result (Klebsiella ssp.; Klebsiella ssp. isolate 3): R; interpretation of the result (Klebsiella ssp.; Klebsiella ssp. isolate 4): S; MIC (Klebsiella ssp.; [16]): ≤ 4 µg/mL; MIC (Klebsiella ssp.; [17]): > 16 µg/mL; MIC (Klebsiella ssp.; [18]): 8 µg/mL (≈ 18.7 µM)
2 | CO/N=C(\C(=O)N[C@@H]1C(=O)N2C(C(=O)O)=C(COC(N)=O)CS[C@H]12)c1ccco1 [Cefu., Cefuroxime] | R | R | R | R | R | > 16 | > 16 | > 16 | > 16 | > 16 | R | R | R | R | R | > 16 | > 16 | > 16 | > 16 | > 16 | interpretation of the result (Acinetobacter baumannii; Acinetobacter baumannii isolate 1): R; interpretation of the result (Acinetobacter baumannii; Acinetobacter baumannii isolate 2): R; interpretation of the result (Acinetobacter baumannii; Acinetobacter baumannii isolate 3): R; interpretation of the result (Acinetobacter baumannii; Acinetobacter baumannii isolate 4): R; interpretation of the result (Acinetobacter baumannii; Acinetobacter baumannii isolate 5): R; MIC (Acinetobacter baumannii; read-out: minimal inhibiting concentration, Acinetobacter baumannii isolate 1): > 16 µg/mL; MIC (Acinetobacter baumannii; read-out: minimal inhibiting concentration, Acinetobacter baumannii isolate 2): > 16 µg/mL; MIC (Acinetobacter baumannii; read-out: minimal inhibiting concentration, Acinetobacter baumannii isolate 3): > 16 µg/mL; MIC (Acinetobacter baumannii; read-out: minimal inhibiting concentration, Acinetobacter baumannii isolate 4): > 16 µg/mL; MIC (Acinetobacter baumannii; read-out: minimal inhibiting concentration, Acinetobacter baumannii isolate 5): > 16 µg/mL
3 | Cc1nnc(SCC2=C(C(=O)O)N3C(=O)[C@@H](NC(=O)Cn4cnnn4)[C@H]3SC2)s1 [Cefa., Cefazolin] | R | R | R | R | R | > 16 | > 16 | > 16 | > 16 | > 16 | R | R | R | R | R | > 16 | > 16 | > 16 | > 16 | > 16 | interpretation of the result (Klebsiella ssp.; Klebsiella ssp. isolate 2): R; interpretation of the result (Klebsiella ssp.; Klebsiella ssp. isolate 3): R; interpretation of the result (Klebsiella ssp.; Klebsiella ssp. isolate 4): R; MIC (Klebsiella ssp.; [16]): > 16 µg/mL; MIC (Klebsiella ssp.; [17]): > 16 µg/mL; MIC (Klebsiella ssp.; [18]): > 16 µg/mL

Reference: US9529005B2, “Modulating bacterial MAM polypeptides in pathogenic disease” (priority 2011, dated 2016)
